In patent US20050090498A1, “3-Quinolin-2(1h)-ylideneindolin-2-one derivative” (priority 2001, published 2005):

What follows are compounds tested on Human umbilical vein endothelial cells (HUVEC), VEGF-stimulated (assay: Test on the inhibition of VEGF-stimulated HUVEC growth ([3H]thymidine incorporation)). Details: human recombinant VEGF 10 ng/ml.
Assay type: cell-based
Protocol: Test method: (Cell culture) Human umbilical vein endothelial cells (HUVEC) were cultured using EGM-2 complete medium (Clonetics) which had been supplemented with additives (2% FBS, 0.4% FGF (fibroblast growth factor), 0.1% VEGF, 0.1% IGF-I (insulin like growth factor-I), 0.1% EGF (epidermal growth factor), 0.1% ascorbic acid, 0.1% GA-1000, 0.1% heparin and 0.04% hydrocortisone).
(Evaluation of compounds) HUVEC (10,000 cells/well) were inoculated into EGM-2 complete medium in a gelatin-coated 96 well plate (mfd. by IWAKI) and cultured overnight. After washing with a physiological phosphate buffer, the medium was exchanged with a low serum medium (Medium 199/0.1% FBS) and the culturing was continued for 24 hours. Each of the compounds to be evaluated was prepared as a 10 mM DMSO solution and diluted with the low serum medium. This was added to each well to a final concentration of from 0.001 to 10 μM. After 2 hours of the compound treatment, human recombinant VEGF (R & D Systems) was added to a final concentration of 10 ng/ml. After 18 hours, [^3H]thymidine (Amersham Pharmacia) was added in 5 μCi/well portions. After 4 hours, the reaction was terminated by adding 0.2% SDS in 50 μl/well portions, and the product was recovered on GF/C Unifilter (Packard). After adding 25 μl of Microscinti 20 (Packard), the radioactivity incorporated into the DNA trapped on the filter was measured using TopCount (Packard). The IC50 of the inhibitory activity of each compound was calculated as the 50% inhibition concentration (IC50 value) of each compound to be tested, by defining the incorporated amount of [^3H]thymidine at the time of VEGF addition as 100%, and its incorporated amount at the time of no addition of VEGF as 0%.
CCOC(=O)c1ccc2c(c1)NC(=O)C2=C1C=Cc2ccccc2N1 [Example 17, ethyl 3-[quinolin-2(1H)-ylidene]indolin-2-one-carboxylate] showed an IC50 of 12 nM.
With O=C1Nc2ccccc2C1=C1C=Cc2cc(OC(=O)c3ccccc3)ccc2N1 [Example 36] the IC50 was 160 nM.
Compound COc1ccc2c(c1)C=CC(=C1C(=O)Nc3ccccc31)N2 [Example 37] has an IC50 of 310 nM.
CC1=CC(=C2C(=O)Nc3ccccc32)Nc2ccccc21 [Example 38] showed an IC50 of 38 nM.
With CCOC(=O)CCC1=CC(=C2C(=O)Nc3ccccc32)Nc2ccccc21 [Example 39] the IC50 was 32 nM.
With O=C1Nc2ccccc2C1=C1C=Cc2cc(OCCCN3CCOCC3)ccc2N1 [Example 42] the IC50 was 110 nM.
In the case of O=C1Nc2ccccc2C1=C1C=Cc2cc(OCCCCN3CCOCC3)ccc2N1 [Example 47], the IC50 is reported as 170 nM.
With O=C1Nc2ccccc2C1=C1C=Cc2cc(Br)ccc2N1 [Example 56] the IC50 was 110 nM.
For O=C1Nc2ccccc2C1=C1C=Cc2cc(OCCNC3CCC(O)CC3)ccc2N1 (stereo not drawn) [Example 57], the IC50 was 720 nM.
For COCCOc1ccc2c(c1)C=CC(=C1C(=O)Nc3ccccc31)N2 [Example 58], the IC50 was 34 nM.
With O=C1Nc2ccccc2C1=C1C=Cc2cc(OCCN3CCCCC3=O)ccc2N1 [Example 59] the IC50 was 87 nM.
O=C(O)CCc1ccc2c(c1)C=CC(=C1C(=O)Nc3ccccc31)N2 [Example 66] showed an IC50 of 350 nM.
COc1cc2c(cc1CCCN1CCOCC1)NC(=C1C(=O)Nc3ccccc31)C=C2 [Example 77] gave an IC50 of 160 nM.
CCOC(=O)C1CCN(CCOc2ccc3c(c2)C=CC(=C2C(=O)Nc4ccccc42)N3)CC1 [Example 79] showed an IC50 of 100 nM.
O=C1Nc2ccccc2C1=C1C=Cc2cc(OCCN3CCS(=O)(=O)CC3)ccc2N1 [Example 80] was tested, and the IC50 was 100 nM.
O=C1Nc2ccccc2C1=C1C=Cc2cc(OCCN3CCC(n4c(=O)[nH]c5ccccc54)CC3)ccc2N1 [Example 81] was tested, and the IC50 was 68 nM.
For O=C1Nc2ccccc2C1=C1C=Cc2cc(OCCN3CCN(c4ncccn4)CC3)ccc2N1 [Example 82], the IC50 was 42 nM.
CN1CCCN(CCOc2ccc3c(c2)C=CC(=C2C(=O)Nc4ccccc42)N3)CC1 [Example 83] showed an IC50 of 110 nM.
In the case of O=C1Nc2ccccc2C1=C1C=Cc2cc(OCCN3CCN(CCO)CC3)ccc2N1 [Example 85], the IC50 is reported as 110 nM.
CN(C)CCN(C)CCOc1ccc2c(c1)C=CC(=C1C(=O)Nc3ccccc31)N2 [Example 86] was tested, and the IC50 was 100 nM.
Compound CN1CCC(N(C)CCOc2ccc3c(c2)C=CC(=C2C(=O)Nc4ccccc42)N3)CC1 [Example 87] has an IC50 of 100 nM.
CN1CCN(CCCc2ccc3c(c2)C=CC(=C2C(=O)Nc4ccccc42)N3)CC1 [Example 98] was tested, and the IC50 was 150 nM.
In the case of O=C1Nc2ccccc2C1=C1C=Cc2ccc(OCCN3CCOCC3)cc2N1 [Example 102], the IC50 is reported as 410 nM.
O=C1Nc2ccccc2C1=C1C=Cc2c(cccc2OCCN2CCOCC2)N1 [Example 105] gave an IC50 of 220 nM.
Compound COCCNCc1ccc2c(c1)C=CC(=C1C(=O)Nc3ccccc31)N2 [Example 112] has an IC50 of 100 nM.
For O=C(CCc1ccc2c(c1)C=CC(=C1C(=O)Nc3ccccc31)N2)NOCC1CC1 [Example 144], the IC50 was 93 nM.
Work on O=C1Nc2ccccc2C1=C1C=Cc2cc(C(=O)NCCN3CCOCC3)ccc2N1 [Example 145] yielded an IC50 of 31 nM.
CCOC(=O)CNC(=O)c1ccc2c(c1)C=CC(=C1C(=O)Nc3ccccc31)N2 [Example 146] showed an IC50 of 76 nM.
CNC(=O)c1ccc2c(c1)C=CC(=C1C(=O)Nc3ccccc31)N2 [Example 149] was tested, and the IC50 was 73 nM.
Compound O=C(NCCN1CCOCC1)C1=CC(=C2C(=O)Nc3ccccc32)Nc2ccccc21 [Example 159] has an IC50 of 38 nM.
In the case of CCN(CC)CCNC(=O)C1=CC(=C2C(=O)Nc3ccccc32)Nc2ccccc21 [Example 160], the IC50 is reported as 46 nM.
O=C(NCCCN1CCOCC1)C1=CC(=C2C(=O)Nc3ccccc32)Nc2ccccc21 [Example 163] was tested, and the IC50 was 43 nM.
For O=C1Nc2ccccc2C1=C1C=C(CO)c2ccccc2N1 [Example 187], the IC50 was 140 nM.
N#Cc1ccc2c(c1)NC(=O)C2=C1C=Cc2ccccc2N1 [Example 191] gave an IC50 of 70 nM.
With O=Cc1ccc2c(c1)NC(=O)C2=C1C=Cc2ccccc2N1 [Example 193] the IC50 was 870 nM.
With Cc1ccc2c(c1)C(=C1C=Cc3ccccc3N1)C(=O)N2 [Example 201] the IC50 was 290 nM.
For O=C1Nc2cc(C(F)(F)F)ccc2C1=C1C=Cc2ccccc2N1 [Example 203], the IC50 was 4.8 nM.
Work on CCOC(=O)c1cc2c(cc1F)C(=C1C=Cc3ccccc3N1)C(=O)N2 [Example 204] yielded an IC50 of 22 nM.
With O=C1Nc2cc(F)ccc2C1=C1C=Cc2ccccc2N1 [Example 209] the IC50 was 18 nM.
With O=C1Nc2ccc(F)cc2C1=C1C=Cc2ccccc2N1 [Example 213] the IC50 was 0.97 nM.
In the case of O=C1Nc2cc(Cl)ccc2C1=C1C=Cc2ccccc2N1 [Example 217], the IC50 is reported as 11 nM.
For CCOC(=O)c1cc2c(cc1C)C(=C1C=Cc3ccccc3N1)C(=O)N2 [Example 222], the IC50 was 6.8 nM.
CCOC(=O)c1ccc2c(c1)C(=C1C=Cc3ccccc3N1)C(=O)N2 [Example 239] was tested, and the IC50 was 310 nM.
With CCOCc1ccc2c(c1)NC(=O)C2=C1C=Cc2ccccc2N1 [Example 259] the IC50 was 71 nM.
With CC(=O)Oc1ccc2c(c1)NC(=O)C2=C1C=Cc2ccccc2N1 [Example 265] the IC50 was 180 nM.
O=C1Nc2ccc(Cl)cc2C1=C1C=Cc2ccccc2N1 [Example 283] showed an IC50 of 84 nM.
Work on O=C1Nc2ccc([N+](=O)[O-])cc2C1=C1C=Cc2ccccc2N1 [Example 284] yielded an IC50 of 360 nM.
O=C1Nc2ccc(Br)cc2C1=C1C=Cc2ccccc2N1 [Example 285] gave an IC50 of 70 nM.
With CCN(CC)CCOc1ccc2c(c1)C(=C1C=Cc3ccccc3N1)C(=O)N2 [Example 286] the IC50 was 750 nM.
With O=C1Nc2ccc(Cl)cc2C1=C1C=Cc2cc(OCCN3CCOCC3)ccc2N1 [Example 293] the IC50 was 48 nM.
CCOC(=O)c1ccc2c(c1)NC(=O)C2=C1C=Cc2cc(OCCN3CCOCC3)ccc2N1 [Example 294] showed an IC50 of 12 nM.
With N#Cc1ccc2c(c1)NC(=O)C2=C1C=Cc2cc(OCCN3CCOCC3)ccc2N1 [Example 295] the IC50 was 33 nM.
In the case of O=C1Nc2cc(C(F)(F)F)ccc2C1=C1C=Cc2cc(OCCN3CCOCC3)ccc2N1 [Example 296], the IC50 is reported as 47 nM.
In the case of CCOC(=O)c1cc2c(cc1Cl)C(=C1C=Cc3cc(OCCN4CCOCC4)ccc3N1)C(=O)N2 [Example 298], the IC50 is reported as 50 nM.
CCOC(=O)c1cc2c(cc1F)C(=C1C=Cc3cc(OCCN4CCOCC4)ccc3N1)C(=O)N2 [Example 299] was tested, and the IC50 was 27 nM.
CCOC(=O)c1cc2c(cc1C)C(=C1C=Cc3cc(OCCN4CCOCC4)ccc3N1)C(=O)N2 [Example 301] showed an IC50 of 7.6 nM.
Work on O=C1Nc2cc(Cl)ccc2C1=C1C=Cc2cc(OCCN3CCOCC3)ccc2N1 [Example 312] yielded an IC50 of 48 nM.
In the case of O=C1Nc2cc(F)c(F)cc2C1=C1C=Cc2cc(OCCN3CCOCC3)ccc2N1 [Example 341], the IC50 is reported as 20 nM.

Tested on: Human umbilical vein endothelial cells (HUVEC), VEGF-stimulated
Assay: as above
Assay type: cell-based
Details: human recombinant VEGF 10 ng/ml
Remark: another data set of the same source
Compound O=C1Nc2ccccc2C1=C1C=Cc2cc(OCCn3ccnn3)ccc2N1 [Example 1, 3-{6-[2-(1H-1,2,3-triazol-1-yl)ethoxy]quinolin-2(1H)-ylidene}indolin-2-one] has an IC50 of 210 nM.
Work on O=C1Nc2ccccc2C1=C1C=Cc2cc(OCC(=O)N3CCOCC3)ccc2N1 [Example 8, 3-[6-(2-morpholin-4-yl-2-oxoethoxy)quinolin-2(1H)-ylidene]indolin-2-one] yielded an IC50 of 170 nM.
With O=C(CN1CCOCC1)Nc1ccc2c(c1)C=CC(=C1C(=O)Nc3ccccc31)N2 [Example 9, 2-morpholin-4-yl-N-[2-(2-oxoindolin-3-ylidene)-1,2-dihydroquinolin-6-yl]acetamide] the IC50 was 200 nM.
Compound Nc1ccc2c(c1)C=CC(=C1C(=O)Nc3ccccc31)N2 [Example 10, 3-[6-aminoquinolin-2(1H)-ylidene]indolin-2-one] has an IC50 of 990 nM.
With O=C1Nc2ccccc2C1=C1C=Cc2cc(CO)ccc2N1 [Example 14, 3-(6-hydroxymethylquinolin-2(1H)-ylidene)indolin-2-one] the IC50 was 300 nM.
CN1CCC(COc2ccc3c(c2)C=CC(=C2C(=O)Nc4ccccc42)N3)CC1 [Example 15, 3-{6-[(1-methylpiperidin-4-yl)methoxy]quinolin-2(1H)-ylidene}indolin-2-one] showed an IC50 of 320 nM.
For O=C(Nc1cccnc1)Nc1ccc2c(c1)C=CC(=C1C(=O)Nc3ccccc31)N2 [Example 16, 1-[2-(2-oxoindolin-3-ylidene)-1,2-dihydroquinolin-6-yl]-3-(pyridin-3-yl)urea], the IC50 was 110 nM.
With CC(=O)c1ccc2c(c1)NC(=O)C2=C1C=Cc2ccccc2N1 [Example 21, 6-acetyl-3-quinolin-2(1H)-ylideneindolin-2-one] the IC50 was 220 nM.
O=C1Nc2cc(C(=O)O)ccc2C1=C1C=Cc2ccccc2N1 [Example 25, 2-oxo-3-quinolin-2(1H)-ylideneindoline-6-carboxylic acid] showed an IC50 of 380 nM.
Compound CN(C)[C@H]1CCCC1Nc1ncc2c(n1)/C(=C1\C=Cc3ccccc3N1)C(=O)N2 (stereo partly drawn) [Example 354] has an IC50 of 140 nM.
Compound O=C1Nc2cnc(Cl)nc2/C1=C1\C=Cc2ccccc2N1 [Example 361] has an IC50 of 24 nM.
